Ends that are not written are not given here. Peptide text beside a SMILES is read from it. * marks the point of attachment. FITC = O=C1OC2(c3ccc(O)cc3Oc3cc(O)ccc32)c2ccc(NC(=S)*)cc21
Key:
AP2M1 [1] = biological target: T1, AP2M1 (Homo sapiens, UniProt Q96CW1); experiment: FP saturation (direct) binding of FITC-labeled probe peptide, AP2M1
T1 construct: His-GST (cleaved yes); made in house; host or cells: E. coli BL21-Gold(DE3)
T1 sequence (Q96CW1 160-435 limits assumed): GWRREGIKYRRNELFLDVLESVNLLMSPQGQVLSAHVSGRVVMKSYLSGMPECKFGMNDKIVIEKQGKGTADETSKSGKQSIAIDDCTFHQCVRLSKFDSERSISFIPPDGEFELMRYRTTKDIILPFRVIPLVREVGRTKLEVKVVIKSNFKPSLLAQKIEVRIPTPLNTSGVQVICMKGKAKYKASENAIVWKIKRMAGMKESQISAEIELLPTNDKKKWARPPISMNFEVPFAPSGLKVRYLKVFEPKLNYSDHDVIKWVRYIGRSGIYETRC
Protocol: (§1) Proteins used for FP affinity measurements were expressed and purified in larger-scale bacterical cultures (at least 8 × 500 mL 2YT). His-GST-tagged G3BP1 and G3BP2 were used directly for affinity measurements after dialysis.
(§2) FP experiments were carried out using a SpectraMax iD5 multimode microplate reader (Molecular Devices) using a black half area 96-well plate (Corning, USA #3993) with a total volume of 50 μL. The settings used were 485 nm for excitation and 535 nm for emission.
(§3) Peptides were from GeneCust (France) with a purity of over 95%. FITC-labeled peptides were dissolved in dimethyl sulfoxide (DMSO). Unlabelled peptides were dissolved in phosphate buffer (50 mM phosphate buffer pH 7.5 and 1–2 mM reducing agent DTT or TCEP). All measurements were performed at least in triplicates. For saturation binding experiment, proteins were serially diluted in the plate with phosphate buffer in a volume 25 μL, and then supplemented with a master mix of 10 nM FITC-labeled peptide in phosphate buffer. […] Twenty-five mitroliter of this displacement master mix was added to unlabeled peptides, which were serially diluted in the plate in 25 μL phosphate buffer.
(§4) The data were analysed with GraphPad Prism version 9.0.0 for MacOS (GraphPad Software, San Diego, California USA, www.graphpad.com). […]

[2] = biological target: FERM domain of Ezrin (EZR) (Homo sapiens, UniProt P15311); experiment: biochemical; format: binding
Chain of FERM domain of Ezrin (EZR) (P15311 2-296 limits assumed): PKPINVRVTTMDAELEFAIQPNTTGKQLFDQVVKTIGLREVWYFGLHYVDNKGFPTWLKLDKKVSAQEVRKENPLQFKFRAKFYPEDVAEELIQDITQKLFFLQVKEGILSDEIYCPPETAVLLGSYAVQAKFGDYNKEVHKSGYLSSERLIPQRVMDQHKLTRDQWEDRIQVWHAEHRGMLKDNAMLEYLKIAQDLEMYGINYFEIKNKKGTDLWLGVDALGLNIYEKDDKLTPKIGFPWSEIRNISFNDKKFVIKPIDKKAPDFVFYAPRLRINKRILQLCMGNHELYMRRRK

AP2M1 [3] = biological target: T1, AP2M1; experiment: biochemical; format: binding
MAP1LC3C [4] = biological target: T2, MAP1LC3C (Homo sapiens, UniProt Q9BXW4); experiment: biochemical; format: binding
T2 construct: His-GST (cleaved yes); made in house; host or cells: E. coli BL21-Gold(DE3)
T2 sequence (Q9BXW4 1-126 limits assumed): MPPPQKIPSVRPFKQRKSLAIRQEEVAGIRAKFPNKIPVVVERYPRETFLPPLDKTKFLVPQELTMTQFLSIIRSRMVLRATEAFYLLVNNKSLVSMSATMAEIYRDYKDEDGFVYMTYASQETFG

USP7 [5] = biological target: T3, USP7 (Homo sapiens, UniProt Q93009); experiment: biochemical; format: binding
T3 construct: His-GST (cleaved yes); made in house; host or cells: E. coli BL21-Gold(DE3)
T3 sequence (Q93009 63-205 limits assumed): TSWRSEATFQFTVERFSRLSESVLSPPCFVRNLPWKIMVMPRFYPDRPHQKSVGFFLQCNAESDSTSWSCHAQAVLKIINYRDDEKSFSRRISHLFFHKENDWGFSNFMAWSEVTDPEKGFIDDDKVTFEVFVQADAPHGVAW

MAP1LC3C [6] = biological target: T2, MAP1LC3C; experiment: FP saturation (direct) binding of FITC-labeled probe peptide, MAP1LC3C
Protocol: as §1, §2, §3, §4

USP7 [7] = biological target: T3, USP7; experiment: FP saturation (direct) binding of FITC-labeled probe peptide, USP7; conditions: Kd direct binding of 10 nM FITC probe, saturation with protein
Protocol: as §1, §2, §3, §4

Compound: CC(C)C[C@H](NC(=O)[C@H](CCCNC(=N)N)NC(=O)[C@H](CCC(N)=O)NC(=O)[C@H](Cc1ccc(O)cc1)NC(=O)[C@H](CCC(=O)O)NC(=O)[C@@H](NC(=O)[C@H](CC(=O)O)NC(=O)[C@H](Cc1ccccc1)NC(=S)Nc1ccc2c(c1)C(=O)OC21c2ccc(O)cc2Oc2cc(O)ccc21)[C@@H](C)O)C(=O)N[C@@H](CCC(=O)O)C(=O)N[C@@H](C)C(=O)N[C@@H](CO)C(=O)O [ATG9A 4-14 Human] (HELM PEPTIDE1{[O=C1OC2(c3ccc(O)cc3Oc3cc(O)ccc32)c2ccc(NC(=S)[*:2])cc21].F.D.T.E.Y.Q.R.L.E.A.S}$$$$V2.0)
- Kd (AP2M1 [1]): 1.1 ± 0.03 µM

Compound: CC[C@H](C)[C@H](NC(=O)[C@H](CC(C)C)NC(=O)[C@@H](NC(=O)CNC(=O)[C@@H](NC(=O)[C@H](CCC(=O)O)NC(=O)[C@H](CCC(=O)O)NC(=O)[C@H](CO)NC(=O)[C@@H](NC(=O)[C@H](Cc1ccccc1)NC(=O)[C@H](CO)NC(=O)[C@H](Cc1ccc(O)cc1)NC(=O)[C@@H](N)CCSC)C(C)C)[C@@H](C)O)[C@@H](C)O)C(=O)N[C@H](C(=O)N[C@@H](CC(N)=O)C(=O)N[C@@H](CO)C(=O)O)C(C)C [E 1-16 Sars-CoV2/Sars-CoV] (H-MYSFVSEETGTLIVNS-OH)
- Kd [2]: 57.9 ± 0.4 µM

Compound: CC[C@H](C)[C@H](NC(=O)[C@H](Cc1c[nH]cn1)NC(=O)[C@H](CCCCN)NC(=O)[C@H](CC(N)=O)NC(=O)[C@H](CC(C)C)NC(C)=O)C(=O)N[C@@H](CC(=O)O)C(=O)N[C@@H](C)C(=O)N[C@@H](Cc1ccc(O)cc1)C(=O)N[C@@H](CCCCN)C(=O)N[C@H](C(=O)N[C@@H](Cc1ccccc1)C(=O)N1CCC[C@H]1C(=O)N1CCC[C@H]1C(=O)N[C@H](C(=O)N[C@@H](CCC(=O)O)C(N)=O)[C@@H](C)O)[C@@H](C)O [N 353-367 Sars-CoV2/Sars-CoV]
- IC50 (AP2M1 [3]): 1530 µM
- Ki (AP2M1 [3]): 530 µM

Compound: CC(C)C[C@H](NC(=O)[C@@H](NC(=O)[C@H](CC(=O)O)NC(=O)[C@H](Cc1ccccc1)NC(=O)[C@H](CO)NC(=O)[C@H](CC(N)=O)NC(=O)[C@H](CO)NC(=O)[C@@H](NC(=O)[C@H](CCC(=O)O)NC(=O)[C@@H](N)C(C)C)[C@@H](C)O)C(C)C)C(=O)N[C@@H](CCCCN)C(=O)N[C@@H](CO)C(=O)N[C@@H](CCC(=O)O)C(=O)N[C@@H](CC(=O)O)C(=O)N[C@@H](C)C(=O)N[C@@H](CCC(N)=O)C(=O)N[C@@H](Cc1ccc(O)cc1)C(=O)O [NSP3 2019-2034 Sars-CoV2]
- Kd [2]: 19.8 ± 0.4 µM
- IC50 (MAP1LC3C [4]): 1530 µM
- Kd (MAP1LC3C [4]): 210 ± 18 µM
- Ki (MAP1LC3C [4]): 210 µM
- IC50 (USP7 [5]): 270 µM
- Kd (USP7 [5]): 37 ± 0.2 µM
- Ki (USP7 [5]): 37 µM

Compound: CC[C@H](C)[C@H](NC(=O)[C@H](CCSC)NC(=O)[C@H](CO)NC(C)=O)C(=O)N[C@@H](CCC(=O)O)C(=O)N[C@@H](CC(=O)O)C(=O)N[C@H](C(=O)N[C@@H](CC(=O)O)C(=O)N[C@@H](Cc1ccc(O)cc1)C(=O)N[C@H](C(=O)N1CCC[C@H]1C(=O)N[C@@H](CC(C)C)C(=O)N[C@@H](CCCCN)C(=O)N[C@@H](CO)C(=O)N[C@@H](C)C(=O)N[C@H](C(N)=O)C(C)C)C(C)C)[C@@H](C)CC [NSP14 6498-6512 Mers]
- Kd (AP2M1 [3]): 3 ± 0.1 µM
- Ki (AP2M1 [3]): 3 µM

Compound: CC(C)C[C@H](NC(=O)[C@H](Cc1c[nH]cn1)NC(=O)[C@@H](NC(=O)[C@H](Cc1c[nH]c2ccccc12)NC(=O)[C@H](CC(=O)O)NC(=O)[C@H](CC(=O)O)NC(=O)[C@H](CC(=O)O)NC(=S)Nc1ccc2c(c1)C(=O)OC21c2ccc(O)cc2Oc2cc(O)ccc21)[C@@H](C)O)C(=O)N[C@@H](CO)C(=O)N[C@@H](CO)C(=O)N[C@@H](CCCCN)C(N)=O [SQSTM1 335-344 Human]
- Kd (MAP1LC3C [6]): 1.1 ± 0.03 µM

Compound: {FITC}-DYSQPSTSSSIIY [MDM2 393-414 Human]
- Ki displacement/Kd direct binding (USP7 [7]): 0.49 µM

From publication PMC8605023 (Nature Communications, 2021)
